Results taken from publication PMC10988762, “Inhibition of malaria and babesiosis parasites by putative red blood cell targeting small molecules” (Frontiers in Cellular and Infection Microbiology, 2024).
Where two headings read alike, the source gives them in different places.

Assays:
AQP3 = test system: AQP3; design: method as in PMID 22624030; settings: RBC assay: AQP3 glycerol conductance ref PMID 22624030; read-out: Micromolar IC50 (RBC), AQP3 glycerol conductance; cited from earlier work
uninfected RBCs [1] = test system: uninfected RBCs
From the text: (§3) We analyzed samples using a volumetric MACSQuant Analyzer Flow Cytometer (Miltenyi Biotec), manually resuspending each row immediately prior to sample uptake. We recorded 10,000 total events for each condition at the instrument-defined low flow rate. We assessed all compounds in 2 separate experiments with blood from different donors. […] All samples were gated for single cell events.

P. falciparum strain 3D7 = assay: Inhibitor susceptibility dose-response assay (SYBR-Green I), P. falciparum 3D7; format: cell-based, Plasmodium falciparum; settings: read-out: IC50 (S.D.), P. falciparum-3D7
Protocol: (§1) The P. falciparum strains 3D7 and Dd2 were obtained from the Walter and Eliza Hall Institute (Melbourne, Australia) and the Malaria Research and Reference Reagent Resource, respectively. […] B. divergens parasites were maintained and assayed in mixed stages without synchronization.
(§2) Ring-stage P. falciparum (1%-parasitemia starting, 1%-hematocrit) and asynchronous B.divergens (0.5%-parasitemia starting, 3%-hematocrit) were incubated with plated compounds for 72h, and ring-stage P. knowlesi (1%-parasitemia starting, 1%-hematocrit) for 48h, before lysis and staining with dye. To quantify the species-specificity of the inhibitors, we divided the range of IC50s across the 4 test lines by the average IC50 across the same lines: inhibitors with increased scores show species-specific activity and reduced scores indicate broad-spectrum, pan-species activity.

P. falciparum strain Dd2 = assay: Inhibitor susceptibility dose-response assay (SYBR-Green I), P. falciparum Dd2; format: cell-based, Plasmodium falciparum; settings: read-out: IC50 (S.D.), P. falciparum-Dd2
Protocol: as §1, §2

[2] = test system: BdC9 line of B. divergens; assay: Inhibitor susceptibility dose-response assay (SYBR-Green I), B. divergens; format: cell-based, Babesia divergens; settings: for IC50: read-out: IC50 (S.D.), B. divergens; for fold lower IC50s against B. divergens than the Plasmodium spp.: B. divergens vs Plasmodium spp.
Protocol: as §1, §2

P. knowlesi YH1 strain = assay: microbe, parasite or virus in culture; format: cell-based, Plasmodium knowlesi; settings: read-out: IC50 (S.D.), P. knowlesi
Protocol: as §1, §2

uninfected RBCs [3] = assay: Cellular phosphatidylserine exposure assay (annexin V flow cytometry);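 also: flow cytometry recording 10,000 events per condition, gated on single cells, with the two experiments using blood from separate donors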
From the text: as §3

in vitro = settings: human
From the text: as §3

[4] = test system: AP-1 transcription factor activation; design: method as in PMID 17175522; settings: ref PMID 17175522; read-out: Micromolar IC50 (AP-1 transcription factor activation); cited from earlier work
RBC = settings: read-out: Micromolar IC50 (RBC), PS exposure, cited from earlier work
P. falciparum (3D7) = assay: Assay for inhibition of parasite proliferation via RBC-targeting (transient exposure of RBCs, wash, then infection); format: cell-based, Plasmodium falciparum; settings: for antimalarial activity retained after transient exposure of RBCs, relative to continuous exposure to inhibitor: 5x P. falciparum 3D7-IC50, RBC preincubation 4-5 hours then washed, 100% = inhibition with continuous exposure, P<0.01; for inhibitory activity following transient exposure of RBCs, in words: transient vs continued exposure, dose-response format where stated, n=3
Protocol: All plates were frozen for storage before assay. For assay, duplicate plates were preincubated with donor O+ RBCs at 2% hematocrit at 37°C in 50µL for 4-5 hours. Following preincubation, one but not the other plate in each pair was washed 4X in complete RPMI to dilute inhibitor. We transferred RBCs from both washed and unwashed plates to black, clear bottom 96-well plates (Corning Cat. No. 3904) and supplemented these suspensions with MACS-purified P. falciparum (3D7) schizonts for a starting parasitemia of 0.1% - 0.25% at 1% hematocrit. Following 72h incubation in standard culture conditions, samples were processed for SYBR-Green I signal ([Mandt et al., 2019]). […] To identify host-targeting compounds, we compared DMSO-treated to inhibitor-treated samples (Students t-test, paired). We carried out the assay with 1 µM mefloquine (Sigma-Aldrich Cat. No. M2319) as a control for reversible inhibition. All assays were conducted in biological triplicate, with each experiment utilizing different donor RBCs. For select compounds, we carried out this same assay in a dose-response series (n=3 experiments). Following normalization to DMSO-controls, we assessed inhibitor activity following transient exposure of RBCs by Two-Way ANOVA tests for repeated measures (Graphpad Prism v9): high P values indicate support for the null hypothesis that dose-dependent inhibition is not modulated by dilution after exposure, consistent with a direct inhibitory effect of the compounds on RBCs persisting after transient exposure.

human epithelial cells = test system: human epithelial cells; design: method as in PMID 17145850; settings: cellular proliferation ref PMID 17145850; read-out: Micromolar IC50 (human epithelial cells); cited from earlier work
[5] = test system: alloresponsive T cell proliferation; design: method as in PMID 24131367; settings: ref PMID 24131367; read-out: Micromolar IC50 (alloresponsive T cell proliferation); cited from earlier work
[6] = target: ELK1-luciferase assay, HeLa; settings: read-out: Micromolar IC50 (ELK1-luciferase assay, HeLa); ref PMID 15225706; cited from earlier work
HCT-116 = settings: read-out: Micromolar IC50 (anchorage formation, HCT-116); ref PMID 15225706; cited from earlier work
sickle RBCs = test system: sickle RBCs; design: method as in PMID 33208899; settings: RBC assay: PS exposure in sickle RBCs ref PMID 33208899; read-out: Micromolar IC50 (RBC), PS exposure in sickle RBCs; cited from earlier work
[7] = 72h, ring-stage, n=3 experiments (or 2 where indicated with *)
[8] = uninfected RBCs (red blood cells), 1% hematocrit
[9] = Plasmodium falciparum, 3D7, 72 h
[10] = Plasmodium falciparum, DD2, 72 h
[11] = 24h, 5x P. falciparum 3D7-IC50, % of RBCs, mean of 2 experiments
[12] = 48h, 5x P. falciparum 3D7-IC50, % of RBCs, mean of 2 experiments
[13] = 72h, 5x P. falciparum 3D7-IC50, % of RBCs, mean of 2 experiments
[14] = Plasmodium falciparum, 3D7, 72h, ring-stage, n=3 experiments (or 2 where indicated with *)
[15] = Plasmodium falciparum, DD2, 72h, ring-stage, n=3 experiments (or 2 where indicated with *)
[16] = Babesia divergens, 72h, asynchronous, n=3 experiments (or 2 where indicated with *)

SMILES | Phosphatidylserine exposure (%) 48h (uninfected RBCs [3]) | Phosphatidylserine exposure (%) 72h (uninfected RBCs [3]) | hemolysis at 24 h, 5 x P. falciparum 3D7-IC50 (in vitro; [8]) | hemolysis at 48 h, 5 x P. falciparum 3D7-IC50 (in vitro; [8]) | hemolysis at 72 h, 5 x P. falciparum 3D7-IC50 (in vitro; [8]) | IC50 (P. falciparum strain 3D7; [9]) | IC50 (P. falciparum strain Dd2; [10]) | IC50 ([2]; Babesia divergens, 72 h) | IC50 (P. knowlesi YH1 strain; Plasmodium knowlesi, 48 h) | Phosphatidylserine exposure (%) 24h (uninfected RBCs [3]; [11]) | Phosphatidylserine exposure (%) 48h (uninfected RBCs [3]; [12]) | Phosphatidylserine exposure (%) 72h (uninfected RBCs [3]; [13]) | further results
[Cl][Au]([Cl])[Cl].c1cnc2c(c1)ccc1cccnc12 [Auphen] | 10. % | 24% | – | – | – | – | – | – | – | – | – | – | IC50 (AQP3): 0.8 µM; Hemolysis (%) 24h (uninfected RBCs [1]): -7%; Hemolysis (%) 48h (uninfected RBCs [1]): 5%; Hemolysis (%) 72h (uninfected RBCs [1]): 10. %; IC50 (P. falciparum strain 3D7; [7]): 1.1 µM; IC50 (P. falciparum strain Dd2; [7]): 0.61 µM; IC50 ([2]; 72h, asynchronous, n=3 experiments (or 2 where indicated with *)): 2.8 µM; IC50 (P. knowlesi YH1 strain; 48h, ring-stage, n=3 experiments (or 2 where indicated with *)): 2 µM; Phosphatidylserine exposure (%) 24h (uninfected RBCs [3]): 3%
COc1ccc2c(c1)c(C1=C(c3c[nH]c4ccccc34)C(=O)NC1=O)cn2CCCN(C)C [Go6983] | – | 4% | -7% | 5% | 12% | 2 µM | 2 µM | 0.5 µM | 4 µM | 2% | 2% | – | IC50 [4]: 0.1 µM; fold lower IC50s against B. divergens than the Plasmodium spp. [2]: at least 3 fold
Oc1ccc2ccccc2c1SSc1c(O)ccc2ccccc12 [IPA-3] | – | – | -14% | 11% | 30% | 5 µM | 5 µM | 15 µM | 4 µM | 29% | 35% | 35% | IC50 (RBC; RBC assay: PS exposure ref PMID 21214270): < 5 µM; antimalarial activity retained after transient exposure of RBCs, relative to continuous exposure to inhibitor (P. falciparum (3D7)): ≥ 80%; inhibitory activity following transient exposure of RBCs, in words (P. falciparum (3D7)): statistically indistinguishable from inhibition with continued exposure
CN(C)CCOc1ccc(-c2nc(-c3ccncc3)c(-c3ccc4c(c3)CC/C4=N\O)[nH]2)cc1 [SB590885] | – | – | -4% | 4% | 11% | 0.7 µM | 1 µM | 4 µM | 1.4 µM | 2% | 2% | 4% | IC50 (human epithelial cells): 1.1 to 6.1 µM
CNC(=O)c1cc(Oc2ccc(NC(=O)Nc3ccc(Cl)c(C(F)(F)F)c3)cc2)ccn1 [Sorafenib] | 12% | 21% | – | – | – | – | – | – | 5 µM | – | – | – | hemolysis at 24 h, 5 x P. falciparum 3D7-IC50 (in vitro): -6%; hemolysis at 48 h, 5 x P. falciparum 3D7-IC50 (in vitro): 16%; hemolysis at 72 h, 5 x P. falciparum 3D7-IC50 (in vitro): 15%; IC50 (P. falciparum strain 3D7; [14]): 4.9 µM; IC50 (P. falciparum strain Dd2; [15]): 4 µM; IC50 (RBC; RBC assay: PS exposure ref PMID 22907570): > 10 µM; IC50 [2, 16]: 2 µM; Phosphatidylserine exposure (%) 24h (uninfected RBCs [3]): 7%
CN1CCN(c2nc(C3=C(c4c[nH]c5ccccc45)C(=O)NC3=O)c3ccccc3n2)CC1 [Sotrastaurin] | – | – | -7% | 9% | 17% | – | – | – | 5 µM | 2% | 2% | 4% | IC50 (P. falciparum strain 3D7; [14]): 5 µM; IC50 (P. falciparum strain Dd2; [15]): 3 µM; IC50 [2, 16]: 10 µM; IC50 [5]: 0.09 µM
N#CC(=C(N)Sc1ccccc1N)C(C#N)=C(N)Sc1ccccc1N [U0126] | 4% | 9% | – | – | – | 5.3 µM | 3.9 µM | 30 µM | 20 µM | 2% | – | – | hemolysis at 24 h, 5 x P. falciparum 3D7-IC50 (in vitro): 3%; hemolysis at 48 h, 5 x P. falciparum 3D7-IC50 (in vitro): 9%; hemolysis at 72 h, 5 x P. falciparum 3D7-IC50 (in vitro): 20%; IC50 [6]: 0.293 µM; IC50 (HCT-116): 19.4 µM
Clc1cccc(Cl)c1CSc1nnc(-c2cnccn2)s1 [Yoda1] | – | – | 7% | 38% | 57% | 4.2 µM | 6 µM | 1.11 µM | 7 µM | – | 100. % | 100. % | hemolysis of RBCs, in words (uninfected RBCs [1]; 5x P. falciparum 3D7-IC50, 24, 48, 72h): rapid onset of hemolysis comparable to control compound A23187; fold lower IC50s against B. divergens than the Plasmodium spp. [2]: at least 3 fold; IC50 (sickle RBCs): ~2 µM; antimalarial activity retained after transient exposure of RBCs, relative to continuous exposure to inhibitor (P. falciparum (3D7)): ≥ 80%; inhibitory activity following transient exposure of RBCs, in words (P. falciparum (3D7)): statistically indistinguishable from inhibition with continued exposure
